Laboratory results published in BindingDB's records for patent US20250115590 (Foresee Pharmaceuticals USA, 2025).

Target: Macrophage metalloelastase (Homo sapiens, UniProt P39900)
Experiment: MMP Inhibitory Assays
Description: The inhibitory effect of compounds on the rate of cleaving fluorogenic MMP substrate (Enzo, BML-P128) by recombinant human MMP-12 catalytic domain (Enzo, BML-SE138) was carried out by methods known in the art. Briefly, to each well of a 96-well black opaque plate, all the reagents were sequentially added by pipetting, and the final reaction contained 4 nM of recombinant human MMP-12 catalytic domain, […] MMP substrate, and various concentrations (0.15 nM to 10,000 nM) of tested compound dilutions in HEPES buffer (pH 7.5) containing 10 mM of CaCl2, 0.01% Brij 35 (polyoxyethylene (23) lauryl ether), and 0.1 mg/ml of BSA. The enzyme and compounds were pre-incubated on a shaker to mix in wells. After an hour of mixing, fluorogenic substrate was added to each well. Reaction without enzyme was used as a blank control in the plate. The plate was then fed into a plate reader to measure fluorescence intensity at Excitation/Emission wavelengths of 340 nm/440 nm every 10 mins for at least 1 hour at 37° C. The IC50 of each compound in MMP-12 inhibition was determined by using a readout obtained at time point 30 minutes.

Chain of Macrophage metalloelastase (P39900 whole entry): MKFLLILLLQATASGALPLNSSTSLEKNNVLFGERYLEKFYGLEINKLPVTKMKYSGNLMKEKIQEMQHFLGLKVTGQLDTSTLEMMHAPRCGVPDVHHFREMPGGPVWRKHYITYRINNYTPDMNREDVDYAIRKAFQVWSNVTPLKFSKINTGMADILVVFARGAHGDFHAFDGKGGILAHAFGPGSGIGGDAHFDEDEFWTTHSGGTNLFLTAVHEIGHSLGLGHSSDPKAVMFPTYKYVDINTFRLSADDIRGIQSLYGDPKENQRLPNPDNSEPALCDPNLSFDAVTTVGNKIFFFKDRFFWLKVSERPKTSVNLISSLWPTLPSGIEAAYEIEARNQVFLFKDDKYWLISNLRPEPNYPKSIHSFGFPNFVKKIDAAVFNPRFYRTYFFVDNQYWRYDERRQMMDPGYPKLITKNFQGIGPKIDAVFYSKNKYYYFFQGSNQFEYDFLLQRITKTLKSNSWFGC

IC50 [nM]	SMILES
> 1000	O=C1NC(=O)C(c2ncoc2Sc2ccc(OCc3cccc(CO)c3)cc2)N1 (configuration not stated) [US20250115590, Compound OC-9]
> 1000	Cc1cccc(COc2ccc(Sc3ocnc3C3NC(=O)NC3=O)cc2)c1 (configuration not stated) [US20250115590, Compound OC-8]
